According to patent US20110118274A1, “PROTEASOME INHIBITORS AND THEIR USE IN TREATING PATHOGEN INFECTION AND CANCER” (CORNELL RESEARCH FOUNDATION, INC., priority 2007, published 2011):

System: Mtb PrcAB-OG
Assay: biochemical
Format: biochemical, Mycobacterium tuberculosis

Work on CSc1sc(C)cc1-c1nsc(=O)o1 [GL5] yielded a Selectivity of 63.8.
